Experimental findings from ChEMBL document CHEMBL4190375, “Current Insights of BRAF Inhibitors in Cancer” (J Med Chem, 2018) are described below.

Bounds are passed on as bounds.

The nature of data set [1]: Cytotoxicity against human HCC364 cells harboring p61 V600E mutant. Type of data set: functional, cell-based.
Data set [2] concerns the target T1, Serine/threonine-protein kinase B-raf (Homo sapiens, UniProt P15056, V600E).
Data set [3] deals with T1, Serine/threonine-protein kinase B-raf. Description: biochemical.
Data set [4] has the same target. The data set is described as follows: Inhibition of BRAF V600E mutant in human A375 cells assessed as reduction in ERK phosphorylation. The class given is cell-based.
The subject of data set [5] is A-375. Description: Cytotoxicity against human A375 cells harboring BRAF V600E mutant after 72 hrs by CellTiter-Glo assay. Type of data set: functional, cell-based. The note with it: A-375, 72 h.
For data set [6], the target named is T1, Serine/threonine-protein kinase B-raf. Description: Inhibition of BRAF V600E mutant (unknown origin).
Data set [7] deals with SK-MEL-28. Description: Cytotoxicity against human SK-MEL-28 cells after 72 hrs by CellTiter-Glo assay. The class given is functional, cell-based. The following applies: SK-MEL-28, 72 h. For orientation: ATP-based viability assays read luminescence as a measure of living cells.
For data set [8], the target named is T1, Serine/threonine-protein kinase B-raf. This is another data set of the same source.
Data set [9] has as its target T2, Serine/threonine-protein kinase A-Raf (Homo sapiens, UniProt P10398).
T2 sequence (P10398 whole entry): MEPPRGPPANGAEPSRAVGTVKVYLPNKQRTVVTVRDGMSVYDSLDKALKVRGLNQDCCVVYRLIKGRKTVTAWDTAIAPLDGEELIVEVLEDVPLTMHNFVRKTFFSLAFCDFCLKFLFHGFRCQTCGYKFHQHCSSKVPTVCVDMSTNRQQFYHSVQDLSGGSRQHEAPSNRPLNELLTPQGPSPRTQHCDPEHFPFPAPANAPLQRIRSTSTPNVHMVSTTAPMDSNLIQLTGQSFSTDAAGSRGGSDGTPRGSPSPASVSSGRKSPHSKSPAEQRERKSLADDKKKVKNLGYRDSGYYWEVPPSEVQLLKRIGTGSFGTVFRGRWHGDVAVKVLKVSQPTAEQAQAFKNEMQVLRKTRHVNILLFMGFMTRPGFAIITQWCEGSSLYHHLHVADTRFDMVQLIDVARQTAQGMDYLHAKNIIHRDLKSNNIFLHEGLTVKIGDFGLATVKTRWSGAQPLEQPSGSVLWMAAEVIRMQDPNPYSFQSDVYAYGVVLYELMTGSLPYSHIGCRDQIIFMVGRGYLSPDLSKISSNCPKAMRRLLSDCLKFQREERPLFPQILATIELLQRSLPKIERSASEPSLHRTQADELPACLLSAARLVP
Description: Inhibition of ARAF (unknown origin).

In data set [10] the target is T3, RAF proto-oncogene serine/threonine-protein kinase (Homo sapiens, UniProt P04049). Description: Inhibition of CRAF (unknown origin).
The target of data set [11] is T1, Serine/threonine-protein kinase B-raf. This is another data set of the same source.
The target in data set [12] is T4, Serine/threonine-protein kinase B-raf (Homo sapiens, UniProt P15056).
Data set [13] is described as follows: Half life in human. Type of data set: ADME, organism-based. The note with it: in vivo.
The target in data set [14] is T1, Serine/threonine-protein kinase B-raf. Description: Inhibition of BRAF V600E mutant in human A375 cells assessed as reduction in ERK phosphorylation after 2 hrs by ELISA. The class given is cell-based.
In data set [15] the target is T3, RAF proto-oncogene serine/threonine-protein kinase. Description: Inhibition of CRAF (unknown origin) by Z'-LYTE assay.
Data set [16] deals with T1, Serine/threonine-protein kinase B-raf. The data set is described as follows: Inhibition of BRAF V600E mutant (unknown origin) by Z'-LYTE assay.
For data set [17], the system named is A-375. The data set is described as follows: Cytotoxicity against human A375 cells harboring BRAF V600E mutant after 72 hrs by alamar blue assay. Type of data set: functional, cell-based. The following applies: A-375, 72 h.
The target of data set [18] is T4, Serine/threonine-protein kinase B-raf. The data set is described as follows: Inhibition of wild type BRAF (unknown origin) by Z'-LYTE assay.
Data set [19] deals with A-375. The data set is described as follows: Cytotoxicity against human A375 cells harboring BRAF V600E mutant after 96 hrs by CellTiter-Glo assay. Type of data set: functional, cell-based. The note with it: A-375, 96 h.
Data set [20] concerns A-375. Description: Cytotoxicity against human A375 cells harboring BRAF V600E mutant. Type of data set: functional, cell-based.
Data set [21] deals with A-375. Description: Cytotoxicity against human A375 cells harboring BRAF V600E mutant after 48 hrs by CellTiter-Glo assay. The note with it: A-375, 48 h. Type of data set: functional, cell-based.
Data set [22] deals with WM 266-4. Description: Cytotoxicity in human WM266.4 cells after 72 hrs by CellTiter-Glo assay. The class given is functional, cell-based. The note with it: WM 266-4, 72 h.
The nature of data set [23]: Tmax in human. Type of data set: ADME, organism-based. The following applies: in vivo.
A short description of data set [24]: Cytotoxicity against human PLGA cells harboring BRAF V600E mutant after 96 hrs by CellTiter-Glo assay. Type of data set: functional, cell-based.
Data set [25] deals with SK-MEL19. The data set is described as follows: Cytotoxicity against human SK-MEL-19 cells harboring BRAF mutant after 3 days. Type of data set: functional, cell-based. The note with it: SK-MEL19, 72 h.
In data set [26] the target is T4, Serine/threonine-protein kinase B-raf. Description: Inhibition of BRAF in human Jurkat T cells assessed as reduction in ERK phosphorylation. The class given is cell-based.
Data set [27] concerns SK-MEL-30. Description: cells. The following applies: Homo sapiens, SK-MEL-30, 48 h.

T4 sequence (P15056 whole entry): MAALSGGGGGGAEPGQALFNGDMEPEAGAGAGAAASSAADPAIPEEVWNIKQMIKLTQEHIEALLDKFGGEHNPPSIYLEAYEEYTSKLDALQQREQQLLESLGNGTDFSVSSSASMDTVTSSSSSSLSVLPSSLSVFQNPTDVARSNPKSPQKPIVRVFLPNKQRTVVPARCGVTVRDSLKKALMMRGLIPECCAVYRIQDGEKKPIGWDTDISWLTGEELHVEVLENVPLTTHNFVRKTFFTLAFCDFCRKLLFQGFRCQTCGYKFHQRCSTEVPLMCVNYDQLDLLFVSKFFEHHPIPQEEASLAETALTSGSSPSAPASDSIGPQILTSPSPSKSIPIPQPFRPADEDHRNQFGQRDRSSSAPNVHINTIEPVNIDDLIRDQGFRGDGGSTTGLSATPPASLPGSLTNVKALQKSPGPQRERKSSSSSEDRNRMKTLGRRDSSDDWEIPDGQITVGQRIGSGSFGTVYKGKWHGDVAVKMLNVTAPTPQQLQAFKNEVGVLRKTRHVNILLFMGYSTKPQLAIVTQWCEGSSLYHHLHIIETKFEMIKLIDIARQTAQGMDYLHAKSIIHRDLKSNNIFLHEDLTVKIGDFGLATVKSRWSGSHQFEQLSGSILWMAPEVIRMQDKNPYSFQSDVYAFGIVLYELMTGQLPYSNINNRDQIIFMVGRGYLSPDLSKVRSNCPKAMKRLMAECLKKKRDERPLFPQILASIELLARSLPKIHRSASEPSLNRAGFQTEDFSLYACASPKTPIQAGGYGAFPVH
T1 sequence (P15056 2-766 V600E limits assumed): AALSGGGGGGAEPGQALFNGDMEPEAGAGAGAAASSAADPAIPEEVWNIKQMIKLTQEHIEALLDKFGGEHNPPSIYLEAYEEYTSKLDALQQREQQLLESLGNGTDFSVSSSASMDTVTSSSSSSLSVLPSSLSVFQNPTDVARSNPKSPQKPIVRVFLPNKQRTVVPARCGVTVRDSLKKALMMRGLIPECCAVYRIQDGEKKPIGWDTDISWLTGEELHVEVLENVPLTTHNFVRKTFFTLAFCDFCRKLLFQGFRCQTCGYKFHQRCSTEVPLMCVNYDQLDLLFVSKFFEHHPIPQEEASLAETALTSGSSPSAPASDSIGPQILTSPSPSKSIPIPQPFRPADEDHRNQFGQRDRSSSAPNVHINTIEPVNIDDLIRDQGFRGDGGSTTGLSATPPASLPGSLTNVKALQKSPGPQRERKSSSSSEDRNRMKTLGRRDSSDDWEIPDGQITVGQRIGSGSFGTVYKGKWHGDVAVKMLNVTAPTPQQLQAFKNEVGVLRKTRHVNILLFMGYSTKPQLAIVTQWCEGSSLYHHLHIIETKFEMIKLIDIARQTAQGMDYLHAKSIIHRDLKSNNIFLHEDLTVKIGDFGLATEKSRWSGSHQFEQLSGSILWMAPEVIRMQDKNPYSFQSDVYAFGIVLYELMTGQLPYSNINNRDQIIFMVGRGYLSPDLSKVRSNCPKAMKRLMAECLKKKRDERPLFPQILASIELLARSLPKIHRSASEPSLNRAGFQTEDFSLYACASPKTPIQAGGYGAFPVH
T3 sequence (P04049 whole entry): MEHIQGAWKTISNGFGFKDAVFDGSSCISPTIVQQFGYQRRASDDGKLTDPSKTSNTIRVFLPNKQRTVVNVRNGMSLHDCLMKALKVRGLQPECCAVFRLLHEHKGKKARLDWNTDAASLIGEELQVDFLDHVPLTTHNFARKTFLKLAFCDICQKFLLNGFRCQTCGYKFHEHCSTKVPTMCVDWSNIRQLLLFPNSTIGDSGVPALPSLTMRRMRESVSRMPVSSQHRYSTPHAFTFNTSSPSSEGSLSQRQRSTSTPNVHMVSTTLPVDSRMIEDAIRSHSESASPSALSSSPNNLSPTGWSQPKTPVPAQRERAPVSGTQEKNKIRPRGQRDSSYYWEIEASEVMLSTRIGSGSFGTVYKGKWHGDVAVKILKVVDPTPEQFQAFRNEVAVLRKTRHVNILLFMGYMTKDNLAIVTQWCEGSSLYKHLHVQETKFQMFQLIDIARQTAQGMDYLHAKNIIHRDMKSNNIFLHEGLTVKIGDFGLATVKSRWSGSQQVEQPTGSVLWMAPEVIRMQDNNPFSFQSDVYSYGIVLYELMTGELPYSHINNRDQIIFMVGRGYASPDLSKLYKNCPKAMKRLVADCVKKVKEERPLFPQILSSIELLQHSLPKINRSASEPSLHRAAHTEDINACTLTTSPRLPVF

Broadly, the IC50 is the midpoint of a concentration-inhibition curve. For `O=C(c1c(F)ccc(NS(=O)(=O)N2CC[C@H](F)C2)c1F)c1c[nH]c2ncc(-c3cnc(C4CC4)nc3)cc12`, the IC50 amounted to 800 nM in [1], 3.5 nM in [2] and 3.8 nM in data set [3].
As for `CSc1cc(Oc2ccnc3[nH]c(=O)cnc23)ccc1NC(=O)Nc1cc(C(C)(C)C)nn1-c1ccccc1`, the IC50 in data set [4] was found to be 5 nM; in [5] it was 10 nM; in data set [6], 15 nM.
For the molecule `CCCS(=O)(=O)Nc1ccc(F)c(C(=O)c2c[nH]c3ncc(Cl)cc23)c1F` [PLX-4720], the midpoint of inhibition in data set [5], the IC50, lay at 500 nM.
For `CC(C)(C)c1nc(-c2cccc(NS(=O)(=O)c3c(F)cccc3F)c2F)c(-c2ccnc(N)n2)s1` [DABRAFENIB], it took 43 nM to reach half-maximal inhibition in data set [7] (IC50).
Regarding `O=C1CCc2c(Oc3ccc4c(c3)[C@H]3[C@@H](O4)[C@@H]3c3nc4ccc(C(F)(F)F)cc4[nH]3)ccnc2N1`, the half-inhibitory concentration (IC50) in [8] is 64 nM; in data set [9], 5.6 nM; in data set [5], 200 nM; in data set [10] it was 7 nM; in [11], 23 nM; in [12], 32 nM.
Usually half-life stands for how long it takes for the measured level to halve. Take `CNc1ncc2cc(-c3cc(NC(=O)NCCC(C)(C)C)c(F)cc3C)c(C)nc2n1` [LY-3009120]: the half-life in data set [13] was 67 h.
Take `CCCS(=O)(=O)Nc1ccc(F)c(-n2cc(-c3cncnc3)c3nc(N(C)C4CCN(CC)CC4)ccc32)c1F` [XP-102]: the IC50 came to 0.5 nM in data set [14]; 0.6 nM in data set [15]; 0.4 nM in data set [16]; 0.9 nM in data set [17]; 0.8 nM in data set [18].
For orientation: EC50 means the concentration needed to bring the measured effect to its halfway point. A higher EC50 goes with a less potent agent. `OCCn1cc(-c2ccc3c(c2)CC/C3=N\O)c(-c2ccncc2)n1` registered a half-maximal effective concentration (EC50) in [19] of over 500 nM.
Take `CCN(C)S(=O)(=O)Nc1ccc(F)c(C(=O)c2c[nH]c3ncc(-c4cnc(C5CC5)nc4)cc23)c1F`: the IC50 in [2] was determined as 16 nM; in data set [3], 4.2 nM; in data set [20] it was 170 nM.
The molecule `CC(C)(N)c1cc(C(=O)NC2CCc3ccc(Oc4ccnc5c4CCC(=O)N5)cc3C2)cc(C(F)(F)F)c1` (stereo not given) displayed an IC50 in data set [5] of 200 nM.
`CN(C)CCOc1ccc(-c2nc(-c3ccncc3)c(-c3ccc4c(c3)CC/C4=N\O)[nH]2)cc1` [SB590885] had an IC50 in data set [21] of 370 nM.
For the molecule `CC(C)(C)c1cc(NC(=O)Nc2ccc(Oc3ccnc4[nH]c(=O)cnc34)cc2F)n(-c2ccccc2)n1`, the results for the IC50 in data set [22], in data set [4] and in data set [6] were 15 nM, 5 nM and 40 nM, respectively.
The Tmax is the time at which the peak concentration occurs. Turning to `C[C@H](NC(=O)c1ncnc(N)c1Cl)c1ncc(C(=O)Nc2cc(C(F)(F)F)c(Cl)cn2)s1`, in [23], the Tmax worked out at 2 h. In addition, the midpoint of inhibition in data set [24], the IC50, lay at 248 nM.
On to `COC(=O)Nc1nc2cc(C3(O)c4ccccc4C(=O)N3c3cc(Cl)ccc3C)ccc2[nH]1` (stereo not given) [XL-281], for which the IC50 worked out at 200 nM in [25], 2000 nM in [26] and 6 nM in [6].
With `CNC(=O)c1cc(Oc2ccc(NC(=O)Nc3ccc(Cl)c(C(F)(F)F)c3)cc2)ccn1` [SORAFENIB], in data set [27], the IC50 was determined as 3900 nM.
